Assay results: patent publication US7696244B2, “Compounds having activity in increasing ion transport by mutant-CFTR and uses thereof” (The Regents of the University of California, priority 2003, dated 2010)

How the values were obtained:
G551D-CFTR = target: T1, G551D-CFTR (Homo sapiens, UniProt P13569, G551D); assay: Activation of G551D-CFTR in transfected FRT cells; type: cell-based; details: positive control 50 μM + 20 μM forskolin
T1 construct: expressed in transfected cells; host or cells: FRT cells
T1 sequence (P13569 whole entry G551D): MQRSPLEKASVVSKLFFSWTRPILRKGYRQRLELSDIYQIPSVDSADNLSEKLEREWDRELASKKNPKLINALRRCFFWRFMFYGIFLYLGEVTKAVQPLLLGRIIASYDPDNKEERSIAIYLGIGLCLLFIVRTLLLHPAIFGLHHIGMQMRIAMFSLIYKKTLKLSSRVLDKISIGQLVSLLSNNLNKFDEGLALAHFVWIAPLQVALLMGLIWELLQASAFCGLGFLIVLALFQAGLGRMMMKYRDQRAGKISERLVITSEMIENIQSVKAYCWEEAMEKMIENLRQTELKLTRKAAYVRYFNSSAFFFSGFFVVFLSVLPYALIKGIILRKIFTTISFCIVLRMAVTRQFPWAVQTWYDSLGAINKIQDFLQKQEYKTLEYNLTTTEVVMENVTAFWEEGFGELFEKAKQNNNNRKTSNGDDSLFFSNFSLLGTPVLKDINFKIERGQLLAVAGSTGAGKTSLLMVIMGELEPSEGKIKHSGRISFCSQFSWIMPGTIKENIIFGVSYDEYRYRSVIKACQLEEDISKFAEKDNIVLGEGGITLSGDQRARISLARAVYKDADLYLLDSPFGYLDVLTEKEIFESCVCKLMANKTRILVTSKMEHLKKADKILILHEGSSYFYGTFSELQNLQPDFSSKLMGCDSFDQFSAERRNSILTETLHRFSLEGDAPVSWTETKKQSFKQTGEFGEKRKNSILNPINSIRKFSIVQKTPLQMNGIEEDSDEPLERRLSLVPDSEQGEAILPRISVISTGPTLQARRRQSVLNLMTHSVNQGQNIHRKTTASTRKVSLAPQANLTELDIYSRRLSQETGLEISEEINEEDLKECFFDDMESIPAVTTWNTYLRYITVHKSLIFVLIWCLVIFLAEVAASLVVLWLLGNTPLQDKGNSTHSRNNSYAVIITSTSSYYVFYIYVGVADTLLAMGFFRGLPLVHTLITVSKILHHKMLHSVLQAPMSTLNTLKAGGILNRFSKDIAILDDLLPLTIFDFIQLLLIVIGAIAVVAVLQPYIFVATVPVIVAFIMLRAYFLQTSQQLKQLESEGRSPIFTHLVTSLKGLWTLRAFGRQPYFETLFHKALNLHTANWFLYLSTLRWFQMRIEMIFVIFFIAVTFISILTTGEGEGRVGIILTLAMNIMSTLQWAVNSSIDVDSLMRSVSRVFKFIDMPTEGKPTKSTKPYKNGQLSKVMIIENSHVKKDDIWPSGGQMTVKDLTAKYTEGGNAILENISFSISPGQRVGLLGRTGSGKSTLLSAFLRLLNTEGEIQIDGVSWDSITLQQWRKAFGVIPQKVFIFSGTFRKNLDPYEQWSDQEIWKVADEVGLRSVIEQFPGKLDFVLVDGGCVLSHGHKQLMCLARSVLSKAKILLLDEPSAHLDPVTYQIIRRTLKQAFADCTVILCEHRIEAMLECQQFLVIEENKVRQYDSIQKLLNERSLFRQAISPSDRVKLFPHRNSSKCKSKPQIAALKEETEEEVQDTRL
Description: Clonal populations of Fischer rat thyroid (FRT) epithelial cells stably co-expressing human ΔF508-CFTR and the high-sensitivity halide-sensing green fluorescent analog YFP-H148Q/I152L (Galietta et al., A.S. (2001) FEBS Lett. 499, 220-224) were generated by liposome transfection and limiting dilution with Zeocin/G418 selection. More than 100 clones were evaluated for high fluorescence and ΔF508-CFTR plasma membrane targeting after growth at 27° C. for 24 hours. […] For short-circuit measurements cells were cultured on Snapwell permeable supports (Corning-Costar) at 500,000 cells/insert. Some measurements were done using stably transfected FRT cells expressing YFP-H148Q and wildtype- or G551D-CFTR (Galietta et al., (2001) J. Biol. Chem. 276, 19723-19728). Patch clamp experiments were done on ΔF508-CFTR-expressing FRT cells plated in 35-mm Petri dishes.

[1] = tested on: human bronchial epithelial cells; assay: Short-circuit current in human bronchial epithelial cells; type: cell-based; details: S.E., n=3-5
Description: Using chamber experiments were performed 7-9 days after plating ΔF508-CFTR expressing FRT cells on Snapwell inserts. The basolateral solution contained (in mM): 130 NaCl, 2.7 KCl, 1.5 KH2PO4, 1 CaCl2, 0.5 MgCl2, 10 glucose, 10 Na-Hepes (pH 7.3). In the apical bathing solution 65 mM NaCl was replaced by Na gluconate, and CaCl2 was increased to 2 mM. Solutions were bubbled with air and maintained at 37° C. The basolateral membrane was permeabilized with 250 μg/ml amphotericin B. For human bronchial epithelial cells, apical and basolateral chambers contained 126 mM NaCl, 0.38 mM KH2PO4, 2.1 mM K2HPO, 1 mM MgSO4, 1 mM CaCl2, 24 mM NaHCO3, and 10 mM glucose (basolateral membrane not permeabilized). The hemichambers were connected to a DVC-1000 voltage clamp (World Precision Instruments) via Ag/AgCl electrodes and 1 M KCl agar bridges for recording short-circuit current
The mean increase in short-circuit current (Isc) was 1.2±0.1 μA/cm^2 in the human cells (S.E., n=25). In five sets of measurements on the human bronchial cells, the percentage increase in Isc after compound versus forskolin alone was 174±28 (genistein); percentages for ΔF508act-01 through ΔF508act-06 were (S.E., n=3-5): 174±34, 131±35, 40±11, 51±17, 107±42, and 104±35, respectively.

phosphatase activity = assay: Phosphatase activity assay on cell homogenates; type: biochemical
Description: (§1) cAMP activity was measured using the BIOTRAK enzymatic immunoassay (Amersham) on FRT cell lysates after incubation with the compound of interest for 10 min without or with 0.5 μM forskolin. Phosphatase activity was determined on cell homogenates using a non-radioactive assay kit (Promega) as described previously (Galietta et al., (2001) J. Biol. Chem. 276, 19723-19728).
(§2) The compounds shown in FIGS. 2A and 3A were assayed for cAMP stimulation and phosphatase inhibition. Cellular cAMP content was measured in FRT cells in the presence of a low forskolin concentration (0.5 μM) with or without test compounds. […] Maximal forskolin (20 μM) gave 1350±17 finol/well. The ΔF508 potentiators at 5 μM gave no increase in cellular cAMP content, except for ΔF508act-04 and ΔF508act-06, which gave modest cAMP elevations (212±17 and 281±37 finol/well, respectively). […] The ΔF508-CFTR potentiators (25 μM, 48 h) were judged to be non-toxic to FRT cells by the dihydrorhodamine assay (Wang et al., (2000) J. Physiol. 524:637-638) and by unimpaired cell growth.

wildtype CFTR = target: T2, wildtype CFTR (Homo sapiens, UniProt P13569); assay: Activation of wildtype CFTR in transfected FRT cells; type: cell-based; details: in the presence of forskolin 50 nM
T2 construct: expressed in transfected cells; host or cells: FRT cells
T2 sequence (P13569 whole entry): as the sequence (P13569 whole entry G551D) above, with D551G counted along it
Description: (§3) Clonal populations of Fischer rat thyroid (FRT) epithelial cells stably co-expressing human ΔF508-CFTR and the high-sensitivity halide-sensing green fluorescent analog YFP-H148Q/I152L (Galietta et al., A.S. (2001) FEBS Lett. 499, 220-224) were generated by liposome transfection and limiting dilution with Zeocin/G418 selection. More than 100 clones were evaluated for high fluorescence and ΔF508-CFTR plasma membrane targeting after growth at 27° C. for 24 hours. For screening, cells were cultured on plastic in Coon's modified F12 medium supplemented with 10% fetal bovine serum, 2 mM L-glutamnine, 100 U/ml penicillin, and 100 μg/ml streptomycin, and plated on black 96-well microplates (Corning-Costar 3904) at 30,000 cells/well. For short-circuit measurements cells were cultured on Snapwell permeable supports (Corning-Costar) at 500,000 cells/insert. Some measurements were done using stably transfected FRT cells expressing YFP-H148Q and wildtype- or G551D-CFTR (Galietta et al., (2001) J. Biol. Chem. 276, 19723-19728). Patch clamp experiments were done on ΔF508-CFTR-expressing FRT cells plated in 35-mm Petri dishes.
The six ΔF508-CFTR potentiators shown in FIG. 2A were tested for activation of wildtype and G551D-CFTR in transfected FRT cells. […] Kd values for activation of wildtype CFTR by ΔF508act-01 through ΔF508act-06 were (in μM): 0.18±0.02, 1.3±0.2, 2.2±0.3, 0.02±0.005, 0.06±0.01 and 0.05±0.01, respectively. These potencies are quite different from those for ΔF508-CFTR activation.

cellular cAMP content = assay: Cellular cAMP content in FRT cells (BIOTRAK enzymatic immunoassay); type: cell-based, rat
Description: as §1, §2

human ΔF508-CFTR = target: T3, human ΔF508-CFTR (Homo sapiens, UniProt P13569, DEL508-508); assay: Fluorescence (YFP-H148Q/I152L) I− influx assay of ΔF508-CFTR potentiator activity in FRT cells; type: cell-based; details: for Kd: FRT cells, 27° C. rescue, forskolin 20 μM, read-out: Kd for activation of ΔF508-CFTR from the fluorescence assay
T3 construct: expressed in transfected cells; host or cells: Fischer rat thyroid (FRT) epithelial cells
T3 sequence (P13569 with tags, fused parts or gaps DEL508-508): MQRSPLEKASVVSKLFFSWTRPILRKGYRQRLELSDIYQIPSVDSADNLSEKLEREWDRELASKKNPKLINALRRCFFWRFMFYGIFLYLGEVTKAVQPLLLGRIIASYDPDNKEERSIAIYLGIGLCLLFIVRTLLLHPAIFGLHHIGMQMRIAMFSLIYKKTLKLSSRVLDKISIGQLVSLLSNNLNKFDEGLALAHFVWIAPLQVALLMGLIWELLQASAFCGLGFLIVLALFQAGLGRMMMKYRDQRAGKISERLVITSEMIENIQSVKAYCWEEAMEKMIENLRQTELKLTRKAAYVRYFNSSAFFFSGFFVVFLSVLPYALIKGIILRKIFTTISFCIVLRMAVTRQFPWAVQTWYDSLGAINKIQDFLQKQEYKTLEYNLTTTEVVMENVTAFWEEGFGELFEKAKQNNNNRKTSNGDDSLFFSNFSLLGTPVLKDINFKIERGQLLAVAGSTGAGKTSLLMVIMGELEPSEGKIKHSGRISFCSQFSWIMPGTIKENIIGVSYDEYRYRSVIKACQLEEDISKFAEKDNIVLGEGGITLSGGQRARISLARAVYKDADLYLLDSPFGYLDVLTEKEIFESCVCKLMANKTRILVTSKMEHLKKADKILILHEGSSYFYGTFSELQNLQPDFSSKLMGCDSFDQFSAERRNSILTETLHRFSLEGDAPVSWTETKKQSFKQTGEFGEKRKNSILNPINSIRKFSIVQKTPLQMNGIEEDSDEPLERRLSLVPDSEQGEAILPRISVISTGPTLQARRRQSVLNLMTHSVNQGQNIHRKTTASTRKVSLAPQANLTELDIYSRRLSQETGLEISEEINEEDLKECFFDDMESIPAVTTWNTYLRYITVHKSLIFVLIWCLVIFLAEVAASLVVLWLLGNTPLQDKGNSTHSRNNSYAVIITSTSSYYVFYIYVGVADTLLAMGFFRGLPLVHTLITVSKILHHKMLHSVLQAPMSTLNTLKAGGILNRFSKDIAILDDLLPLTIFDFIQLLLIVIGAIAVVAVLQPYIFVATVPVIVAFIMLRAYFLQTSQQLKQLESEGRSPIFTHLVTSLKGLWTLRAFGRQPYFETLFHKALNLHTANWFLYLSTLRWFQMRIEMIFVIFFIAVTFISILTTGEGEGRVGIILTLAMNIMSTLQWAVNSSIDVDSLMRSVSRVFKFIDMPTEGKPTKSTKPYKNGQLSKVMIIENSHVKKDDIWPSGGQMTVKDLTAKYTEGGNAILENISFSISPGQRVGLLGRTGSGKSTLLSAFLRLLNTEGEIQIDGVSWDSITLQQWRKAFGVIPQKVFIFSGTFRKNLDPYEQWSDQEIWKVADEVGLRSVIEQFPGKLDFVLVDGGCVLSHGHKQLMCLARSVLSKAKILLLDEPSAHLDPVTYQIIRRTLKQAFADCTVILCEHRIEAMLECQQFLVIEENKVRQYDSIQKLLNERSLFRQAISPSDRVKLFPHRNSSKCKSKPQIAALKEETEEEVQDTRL
Description: as §3
For assay of ΔF508-CFTR potentiator activity the incubator (27° C., 90% humidity, 5% CO2/95% air) was loaded with forty-to-sixty 96-well plates containing FRT cells. After an 18-24 hour incubation plates were washed 3 times with PBS (300 μl/wash) leaving 50 μl PBS. 10 μl of PBS containing 120 μM forskolin was added, and after 5 min test compounds (0.6 μl of 0.25 mM DMSO solution) were added to each well to give 2.5 μM final-compound concentrations. After 15 min, 96-well plates were transferred to a plate reader for fluorescence assay. Each well was assayed individually for I^− influx by recording fluorescence continuously (200 ms per point) for 2 s (baseline) and then for 12 s after rapid (<1 s) addition of 160 μL of isosmolar PBS in which 137 mM Cl^− was replaced by I^−.I^− influx rates were computed from initial fluorescence versus time-curve slopes (determined by 3rd order polynomial regression) after normalization for total fluorescence (background subtracted initial fluorescence).
The high-throughput screen was designed to identify compounds that activated ΔF508-CFTR when expressed at the cell plasma membrane. FRT epithelial cells co-expressing ΔF508-CFTR and a high sensitivity green fluorescent protein-based halide indicator were incubated at 27° C. for 24 h to permit ΔF508-CFTR plasma membrane targeting (FIG. 1A). After washing, forskolin (20 μM) and test compounds (2.5 μM) were added to individual wells of 96-well plates. The I^− influx assay was carried out ˜15 min later by measurement of the time course of decreasing YFP fluorescence after creation of an inwardly-directed I^− gradient. A high concentration of forskolin was used to identify ΔF508-CFTR potentiators that may interact directly with ΔF508-CFTR rather than alter cAMP concentration. Since activation of CFTR requires cAMP stimulation, forskolin, an enhancer of cAMP, was added to the in vitro models in order to mimic the cellular cAMP stimulation.
The strong potentiators were subjected to secondary analysis to select a subset for further analysis. None of the strong potentiators stimulated I^− influx in the fluorescence assay using FRT null cells (expressing YFP-H148Q/[…] alone) or in ΔF508-CFTR expressing cells in the absence of forskolin. The increased I^− influx for each potentiator was blocked by the thiazolidinone CFTR inhibitor CFTRinh-172 (19). […] Several of these compounds are shown in FIG. 6, along with data as to the activity of these compounds.

[2] = compound 5 μM, forskolin 0.5 μM, control 129±7

| SMILES | percentage increase in Isc after compound versus forskolin alone [1] | Kd (wildtype CFTR) | Kd (human ΔF508-CFTR) | also measured |
| --- | --- | --- | --- | --- |
| O=c1c(-c2ccc(O)cc2)coc2cc(O)cc(O)c12 [genistein, reference compound] | 174±28% |  |  | G551D-CFTR activation (G551D-CFTR): strong activation |
| C=C1[C@@H](O)[C@@H]2O[C@]3(CC[C@H](/C=C/[C@@H](C)[C@@H]4CC(C)=C[C@@]5(O[C@H](C[C@@](C)(O)C(=O)O)CC[C@H]5O)O4)O3)CC[C@H]2O[C@@H]1[C@@H](O)C[C@H](C)[C@H]1O[C@@]2(CCCCO2)CC[C@H]1C [okadaic acid] |  |  |  | inhibition of phosphatase activity (phosphatase activity): > 90%; phosphatase activity (phosphatase activity; control 703±69): 56±15 pmol free phosphate/μg protein |
| NC(=O)c1oc2ccccc2c1NC(=O)c1ccccc1 [ΔF508act-06, 3-Benzoylamino-benzofuran-2-carboxylic acid amide] | 104±35% | 50 ± 10 nM | 650 ± 80 nM | cAMP content (cellular cAMP content; [2]): 281±37 finol/well |
| C=C[C@@]1(C)CC(=O)[C@]2(O)[C@@]3(C)[C@@H](O)CCC(C)(C)[C@@H]3[C@H](O)[C@H](OC(C)=O)[C@@]2(C)O1 [forskolin, reference compound] |  |  |  | cAMP content (cellular cAMP content; maximal forskolin 20 μM): 1350±17 finol/well |
| COC(=O)C1=C(C)NC(C)=C(C(=O)OC)C1c1ccc(C(C)C)cc1 [ΔF508act-05, 4-(4-Isopropyl-phenyl)-2,6-dimethyl-1,4-dihydro-pyridine-3,5-dicarboxylic acid dimethyl ester] | 107±42% | 60 ± 10 nM | 100 ± 10 nM |  |
| O=C(O)c1ccc(/C=C2\SC(=S)N(c3cccc(C(F)(F)F)c3)C2=O)cc1 [CFTRinh-172, reference compound] |  |  |  | effect on potentiator-increased I− influx (human ΔF508-CFTR): blocked |
| NC(=O)c1c(NC(=O)c2ccccc2Cl)sc2c1CCCC2 [ΔF508act-02, 2-(2-Chloro-benzoylamino)-4,5,6,7-tetrahydro-benzo[b]thiophene-3-carboxylic acid amide] | 131±35% | 1300 ± 200 nM | 180 ± 30 nM |  |
| Cc1cc(Br)c2[nH]c3c(c2c1)CCCC3=O [ΔF508act-03, 8-Bromo-6-methyl-2,3,4,9-tetrahydro-carbazol-1-one] | 40±11% | 2200 ± 300 nM | 700 ± 40 nM |  |
| COc1ccc(-n2c(C)cc(C=C3C(=O)NC(=O)N(Cc4ccco4)C3=O)c2C)cc1 [ΔF508act-01, 1-Furan-2-yhnethyl-5-[1-(4-methoxy-phenyl)-2,5-dimethyl-1H-pyrrol-3-ylmethylene]-pyrimidine-2,4,6-trione] | 174±34% |  | 1300 ± 100 nM |  |
| CC(C)(C)c1ccc(Oc2c(N)ccc3c2C(=O)c2ccccc2C3=O)cc1 [ΔF508act-04, 2-Amino-1-(4-tert-butyl-phenoxy)-anthraquinone] | 51±17% | 20 ± 5 nM | 870 ± 100 nM | cAMP content (cellular cAMP content; [2]): 212±17 finol/well |
